The target of experiment [1] is BTK kinase (Homo sapiens, UniProt Q06187). The experiment can be described thus: BTK kinase inhibitory activity (QSS Assist BTK_MSA kit). As to conditions: 30 min preincubation, ATP 1 mM, concentration as compound A free form. It is filed as biochemical. The procedure:
The BTK kinase inhibitory activity was evaluated using QSS Assist BTK_MSA kit (Carna Bioscience).
The test compound B was dissolved in dimethyl sulfoxide (DMSO) to prepare a solution at a 100-fold concentration as compared to the final concentration. The solution was also 25-fold diluted with an appurtenant assay buffer to obtain a test compound B solution. In addition, BTK kinase appurtenant to the kit was used for the reaction.
5 μL of the test compound B solution at a 4-fold concentration, prepared using the aforementioned assay buffer, and 10 μL of a BTK kinase solution at a 2-fold concentration were mixed within a well of a 384 well plate, and left to undergo a reaction at room temperature for 30 minutes. Continuously, 5 μL of a substrate peptide/ATP/MgCl2 solution at a 4-fold concentration was added thereto to perform the reaction at room temperature for 1 hour. The substrate peptide was used at a final concentration of 1000 nM, ATP at a final concentration of 1 mM, and MgCl2 at a final concentration of 5 mM. Thereafter, 60 μL of an appurtenant termination buffer was added thereto to stop the reaction. The BTK kinase activity was calculated by quantifying a product conversion ratio obtained from the substrate peptide peak height and the product (phosphorylated substrate peptide) peak height with LabChip EZ Reader II (PerkinElmer). […]

For experiment [2], the system named is OCI-Ly10 subcutaneous xenograft. The experiment can be described thus: Anti-tumor evaluation in OCI-Ly10 subcutaneous xenograft mouse model. It is filed as in vivo. As to conditions: for tumor volume after 14 days: control 188 to 520 mm^3. The procedure:
The human diffuse large B-cell lymphoma cell line OCI-Ly10 cells were subcutaneously implanted to a dorsal part of an immunodeficient mouse (NOD.CB 17-Prkdc scid/J, male, 4-week-old (Charles River Laboratories Japan, Inc.)) to prepare an OCI-Ly10 subcutaneous xenograft mouse model. To mice which were divided based on the tumor volumes, 0.5% methylcellulose (control group: 10 mL/kg/day, QD, po (n=4)) or the test compound B (test compound B-administered group: 30 or 100 mg/kg/day in 0.5% methylcellulose suspension, QD, po (n=4)) were administered. The change in the tumor volume was evaluated over time.

The test system of experiment [3] is human acute myeloid leukemia cell line MV4-11 cells. Nature of the experiment: Proliferation inhibition, MV4-11 cells (CellTiter-Glo). As to conditions: MV4-11, 72 h, 3 days culture. It is filed as cell-based. The procedure: MV4-11 is a cell line originated from human acute myeloid leukemia and the BTK expression has been confirmed (Mol. Cell Proteomics. 2009; 8(7):1751-1764). The human acute myeloid leukemia cell line MV4-11 cells (American Type Culture Collection, CRL-9591) cultured in an Iscove's Modified Dulbecco's Medium (Sigma) contain […] 10% bovine serum were seeded into 96 well plates. On the next day, DMSO solution of the test compound B at final concentrations from 1 nM to 10 μM or only DMSO (DMSO group) were added thereto to culture the cells at 37° C. in 5% CO2 for 3 days. Thereafter, the cell number was measured using a cell counting reagent (CellTiter-Glo (registered trademark) Luminescent Cell Viability Assay (Promega)). The cell proliferation inhibition rate was calculated as the measured value in the DMSO group set as 0% inhibition and the measured value in the well only with the medium on which the cells have not been seeded set as 100% inhibition.
In general terms: ATP-based viability assays read luminescence as a measure of living cells.

The subject of experiment [4] is human lymphoblastic leukemia cell line MOLT-4 cells. Nature of the experiment: Proliferation inhibition, MOLT-4 cells (CellTiter-Glo). It is filed as cell-based. Particulars: MOLT-4, 96 h, 4 days culture. The procedure: MOLT-4 is a cell lines originated from human lymphoblastic leukemia and the ITK expression has been confirmed (Mol. Pharmacol. 2012; 82:938-947). The human lymphoblastic leukemia cell line MOLT-4 cells (European Collection of Cell Cultures, 85011413) cultured in RPMI1640 medium (Sigma) containing 10% bovine serum were inoculated into 96 well plates. On the same day, DMSO solutions of the test compound B at final concentrations from 1 nM to 10 μM or only DMSO (DMSO group) were added thereto to culture the cells at 37° C. in 5% CO2 for 4 days. Thereafter, the cell number was measured using a cell counting reagent (CellTiter-Glo (registered trademark) Luminescent Cell Viability Assay (Promega)). The cell proliferation inhibition rate was calculated as the measured value in the DMSO group set as 0% inhibition and the measured value in the well only with the medium on which the cells have not been seeded set as 100% inhibition.

The text below walks through data of patent US20170196859A1, “PHARMACEUTICAL COMPOSITION COMPRISING PYRAZINE CARBOXAMIDE COMPOUND AS ACTIVE INGREDIENT” (Astellas Pharma Inc., priority 2014, published 2017).

Chain of BTK kinase (Q06187 whole entry): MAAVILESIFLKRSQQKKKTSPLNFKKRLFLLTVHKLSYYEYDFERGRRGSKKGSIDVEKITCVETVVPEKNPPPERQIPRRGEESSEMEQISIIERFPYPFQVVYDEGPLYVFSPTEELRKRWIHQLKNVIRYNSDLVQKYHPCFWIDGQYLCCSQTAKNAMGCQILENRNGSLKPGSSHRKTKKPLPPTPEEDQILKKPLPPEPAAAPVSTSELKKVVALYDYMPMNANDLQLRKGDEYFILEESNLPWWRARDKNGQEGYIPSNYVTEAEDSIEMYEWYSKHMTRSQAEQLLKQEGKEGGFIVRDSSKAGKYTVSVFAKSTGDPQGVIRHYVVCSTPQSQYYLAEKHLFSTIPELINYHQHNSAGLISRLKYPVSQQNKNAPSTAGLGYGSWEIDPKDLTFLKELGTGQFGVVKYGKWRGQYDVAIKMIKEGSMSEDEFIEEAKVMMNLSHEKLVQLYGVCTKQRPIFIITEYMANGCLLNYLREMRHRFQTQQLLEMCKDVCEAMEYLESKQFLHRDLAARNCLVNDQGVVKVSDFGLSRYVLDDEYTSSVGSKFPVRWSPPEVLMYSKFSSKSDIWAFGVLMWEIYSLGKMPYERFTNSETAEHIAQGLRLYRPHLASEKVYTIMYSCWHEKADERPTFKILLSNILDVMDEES

Usually IC50 stands for the concentration needed to halve the response being measured. Low readings indicate greater potency, high ones weaker potency. With `C=CC(=O)N1CC[C@@H](Oc2nc(Nc3ccc(N4CCC(N5CCN(C)CC5)CC4)cc3)c(C(N)=O)nc2CC)C1` [test compound B, 5-{[(3R)-1-acryloylpyrrolidin-3-yl]oxy}-6-ethyl-3-({4-[4-(4-methylpiperazin-1-yl)piperidin-1-yl]phenyl}amino)pyrazine-2-carboxamide monomethanesulfonate], the IC50 in experiment [1] was found to be 0.17 nM; in experiment [3] it was 10 nM; in experiment [4], 410 nM. Further, the “tumor volume after 14 days” value worked out at 50 mm^3 in experiment [2] (30 mg/kg/day QD po, 190 mm^3 at start of administration) and 22 mm^3 in experiment [2] (100 mg/kg/day QD po, 184 mm^3 at start of administration). For the same compound, the “antitumor activity in OCI-Ly10 xenograft mouse model” value in experiment [2] (summary statement, 30 and 100 mg/kg/day) is “remarkable antitumor activity with regression in a dose-dependent manner”.
